# Laboratory results from patent US20250136553A1, “ACYLSULFONAMIDE KAT6A INHIBITORS” (Olema Pharmaceuticals, Inc., priority 2023, published 2025).
# Target: human-KAT6A (MYST domain 507-778 aa) (Homo sapiens (Human), UniProt Q92794)
# Experiment: KAT6A biochemical assay (TR-FRET)
# Details: @ 1 μM; reported where IC50 could not be determined; read-out: Percent inhibition at specific concentration (KAT6A)
# Excerpt: TR-FRET based methods were used for assaying compounds of the present invention for KAT6A enzyme inhibitory activity. TR-FRET is a homogeneous proximity assay where Europium-labelled anti-acetyl lysine antibody binds to the acetylated substrate labelled with biotin, which in turn binds to streptavidin-labelled APC fluorescence acceptor. Europium can transfer energy to APC in the complex and the interaction of two dye-labelled binding partners is detected by the energy transfer between a donor and an acceptor dye and the subsequent light emission by the acceptor dye. KAT6A transfer an acetyl group from acetyl CoA to lysine amino acids of histones/target proteins. […] The selected compound of the present invention and enzyme are incubated for 30 min on plate shaker at 300 rpm at 25° C. Next, 5 μL of substrate mix containing histone H4 peptide and acetyl-CoA in assay buffer is added to the plate. The final concentrations of H4 peptide and acetyl-CoA are 200 nM and 600 nM, respectively. Following 60 min reaction at 25° C. on plate shaker at 300 rpm, 5 μL of detection mix containing Europium-labelled anti-acetyl antibody and streptavidin-APC is added to the reaction wells. The plate is further incubated at 25° C. on shaker at 300 rpm and is read in TR-FRET mode (Ex:340 nm; Em: 615 nm and 665 nm) on a plate reader to achieve ˜5-7-fold activity. The percent inhibition was calculated from the ratio of the fluorescence (FL) intensities [(F665/F615)×10000) using the formula […]. IC50 values of the compounds were determined by fitting the dose-response data to sigmoidal curve fitting equation using Graph pad prism software V9.
# Sequence of human-KAT6A (MYST domain 507-778 aa) (Q92794 507-778): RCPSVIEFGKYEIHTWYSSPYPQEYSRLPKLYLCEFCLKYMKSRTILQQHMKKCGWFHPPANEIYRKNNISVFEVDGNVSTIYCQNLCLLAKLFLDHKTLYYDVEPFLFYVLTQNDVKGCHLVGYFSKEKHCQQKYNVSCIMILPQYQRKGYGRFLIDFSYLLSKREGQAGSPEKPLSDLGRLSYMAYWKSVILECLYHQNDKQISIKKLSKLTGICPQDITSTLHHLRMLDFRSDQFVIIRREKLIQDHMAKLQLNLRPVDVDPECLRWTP
row,inhibition at 1 µM [%],SMILES
1,16,"COc1cccc(OC)c1S(=O)(=O)NC(=O)c1ccc(Cn2cccn2)c(OC(F)F)n1 [Compound 215, 5-((1H-pyrazol-1-yl)methyl)-6-(difluoromethoxy)-N-((2,6-dimethoxyphenyl)sulfonyl)picolinamide]"

# Same assay, conditions: TR-FRET; histone H4 peptide 200 nM, acetyl-CoA 600 nM; read-out: KAT6A IC50
row,SMILES,IC50 [nM]
1,"COc1ccc(C(C)(C)C)cc1S(=O)(=O)NC(=O)c1ccc(Cn2cccn2)cn1 [Compound 201, 5-((1H-pyrazol-1-yl)methyl)-N-((5-(tert-butyl)-2-methoxyphenyl)sulfonyl)picolinamide]",731
2,"COc1cc(C(=O)NS(=O)(=O)c2c(OC)cccc2OC)cnc1Cn1cccn1 [Compound 202, 6-((1H-pyrazol-1-yl)methyl)-N-((2,6-dimethoxyphenyl)sulfonyl)-5-methoxynicotinamide]",104
3,"CCc1ccc(OC)c(S(=O)(=O)NC(=O)c2ccc(Cn3cccn3)c(OC)n2)c1 [Compound 204, 5-((1H-pyrazol-1-yl)methyl)-N-((5-ethyl-2-methoxyphenyl)sulfonyl)-6-methoxypicolinamide]",6
4,"COc1ccc(C(C)(C)C)cc1S(=O)(=O)NC(=O)c1ccc(Cn2cccn2)c(OC)n1 [Compound 205, 5-((1H-pyrazol-1-yl)methyl)-N-((5-(tert-butyl)-2-methoxyphenyl)sulfonyl)-6-methoxypicolinamide]",8
5,"COc1ccc(C2CC2)cc1S(=O)(=O)NC(=O)c1ccc(Cn2cccn2)c(OC)n1 [Compound 206, 5-((1H-pyrazol-1-yl)methyl)-N-((5-cyclopropyl-2-methoxyphenyl)sulfonyl)-6-methoxypicolinamide]",8
6,"COc1ccc(C(F)(F)F)cc1S(=O)(=O)NC(=O)c1ccc(Cn2cccn2)c(OC)n1 [Compound 207, 5-((1H-pyrazol-1-yl)methyl)-6-methoxy-N-((2-methoxy-5-(trifluoromethyl)phenyl)sulfonyl)picolinamide]",10
7,"CCc1ccc(OC)c(S(=O)(=O)NC(=O)c2cc(OC)c(Cn3cccn3)cn2)c1 [Compound 210, 5-((1H-pyrazol-1-yl)methyl)-N-((5-ethyl-2-methoxyphenyl)sulfonyl)-4-methoxypicolinamide]",64
8,"COc1ccc2c(c1S(=O)(=O)NC(=O)c1ccc(Cn3cccn3)c(OC)n1)OCC2 [Compound 211, 5-((1H-pyrazol-1-yl)methyl)-6-methoxy-N-((6-methoxy-2,3-dihydrobenzofuran-7-yl)sulfonyl)picolinamide]",8
9,"COc1cc(C(=O)NS(=O)(=O)c2c(OC)cccc2OC)ncc1Cn1cccn1 [Compound 212, 5-((1H-pyrazol-1-yl)methyl)-N-((2,6-dimethoxyphenyl)sulfonyl)-4-methoxypicolinamide]",140
10,"COc1cc2c(cc1S(=O)(=O)NC(=O)c1ccc(Cn3cccn3)c(OC)n1)CCC2 [Compound 213, 5-((1H-pyrazol-1-yl)methyl)-6-methoxy-N-((6-methoxy-2,3-dihydro-1H-inden-5-yl)sulfonyl)picolinamide]",12
11,"COc1ccc2c(c1S(=O)(=O)NC(=O)c1ccc(Cn3cccn3)c(OC)n1)CCC2 [Compound 216, 5-((1H-pyrazol-1-yl)methyl)-6-methoxy-N-((5-methoxy-2,3-dihydro-1H-inden-4-yl)sulfonyl)picolinamide]",12
12,"COc1ccc2c(c1S(=O)(=O)NC(=O)c1ccc(Cn3cccn3)c(OC)n1)CCCC2 [Compound 217, 5-((1H-pyrazol-1-yl)methyl)-6-methoxy-N-((2-methoxy-5,6,7,8-tetrahydronaphthalen-1-yl)sulfonyl)picolinamide]",11
13,"COc1cccc(OC2CCC2)c1S(=O)(=O)NC(=O)c1ccc(Cn2cccn2)c(OC)n1 [Compound 219, 5-((1H-pyrazol-1-yl)methyl)-N-((2-cyclobutoxy-6-methoxyphenyl)sulfonyl)-6-methoxypicolinamide]",9
14,"COc1cc(OC)c(S(=O)(=O)NC(=O)c2ccc(Cn3cccn3)c(OC)n2)c(OC)c1 [Compound 224, 5-((1H-pyrazol-1-yl)methyl)-6-methoxy-N-((2,4,6-trimethoxyphenyl)sulfonyl)picolinamide]",11
15,"COc1ccc(C(C)(C)O)cc1S(=O)(=O)NC(=O)c1ccc(Cn2cccn2)c(OC)n1 [Compound 230, 5-((1H-pyrazol-1-yl)methyl)-N-((5-(2-hydroxypropan-2-yl)-2-methoxyphenyl)sulfonyl)-6-methoxypicolinamide]",11
16,"COc1ccccc1S(=N)(=O)NC(=O)c1ccc(Cn2cccn2)c(OC)n1 (stereo not drawn) [Compound 232, 5-((1H-pyrazol-1-yl)methyl)-6-methoxy-N-(2-methoxyphenylsulfonimidoyl)picolinamide]",95
17,"COc1nc(C(=O)NS(=O)(=O)c2cccc3c2CCC3)ccc1Cn1cccn1 [Compound 233, 5-((1H-pyrazol-1-yl)methyl)-N-((2,3-dihydro-1H-inden-4-yl)sulfonyl)-6-methoxypicolinamide]",94
18,"COc1nc(C(=O)NS(=O)(=O)c2ccc3c(c2)CCC3)ccc1Cn1cccn1 [Compound 234, 5-((1H-pyrazol-1-yl)methyl)-N-((2,3-dihydro-1H-inden-5-yl)sulfonyl)-6-methoxypicolinamide]",42

# Second part, the compound after the results:
row,IC50 [nM],SMILES
1,22,"COc1ccccc1S(=O)(=O)NC(=O)c1ccc(Cn2cccn2)c(OC)n1 [Compound 208, 5-((1H-pyrazol-1-yl)methyl)-6-methoxy-N-((2-methoxyphenyl)sulfonyl)picolinamide]"
2,71,"COc1cccc(OC)c1S(=O)(=O)NC(=O)c1ccc(Cn2cccn2)c(C)n1 [Compound 209, 5-((1H-pyrazol-1-yl)methyl)-N-((2,6-dimethoxyphenyl)sulfonyl)-6-methylpicolinamide]"
3,12,"COc1ccc(C)cc1S(=O)(=O)NC(=O)c1ccc(Cn2cccn2)c(OC)n1 [Compound 214, 5-((1H-pyrazol-1-yl)methyl)-6-methoxy-N-((2-methoxy-5-methylphenyl)sulfonyl)picolinamide]"
4,8,"CCOc1cccc(OC)c1S(=O)(=O)NC(=O)c1ccc(Cn2cccn2)c(OC)n1 [Compound 218, 5-((1H-pyrazol-1-yl)methyl)-N-((2-ethoxy-6-methoxyphenyl)sulfonyl)-6-methoxypicolinamide]"
5,7,"COc1cccc(OC(F)F)c1S(=O)(=O)NC(=O)c1ccc(Cn2cccn2)c(OC)n1 [Compound 220, 5-((1H-pyrazol-1-yl)methyl)-N-((2-(difluoromethoxy)-6-methoxyphenyl)sulfonyl)-6-methoxypicolinamide]"
6,5,"COc1cccc(OC(C)C)c1S(=O)(=O)NC(=O)c1ccc(Cn2cccn2)c(OC)n1 [Compound 221, 5-((1H-pyrazol-1-yl)methyl)-N-((2-isopropoxy-6-methoxyphenyl)sulfonyl)-6-methoxypicolinamide]"
7,18,"COc1ccc(C)c(OC)c1S(=O)(=O)NC(=O)c1ccc(Cn2cccn2)c(OC)n1 [Compound 222, 5-((1H-pyrazol-1-yl)methyl)-N-((2,6-dimethoxy-3-methylphenyl)sulfonyl)-6-methoxypicolinamide]"
8,17,"COc1ccc(C2CC2)c(OC)c1S(=O)(=O)NC(=O)c1ccc(Cn2cccn2)c(OC)n1 [Compound 223, 5-((1H-pyrazol-1-yl)methyl)-N-((3-cyclopropyl-2,6-dimethoxyphenyl)sulfonyl)-6-methoxypicolinamide]"
9,10,"CCc1ccc(OC)c(S(=O)(=O)NC(=O)c2ccc(Cn3cccn3)c(OC)n2)c1OC [Compound 225, 5-((1H-pyrazol-1-yl)methyl)-N-((3-ethyl-2,6-dimethoxyphenyl)sulfonyl)-6-methoxypicolinamide]"
10,27,"COc1ccc(S(=O)(=O)NC(=O)c2ccc(Cn3cccn3)c(OC)n2)c(OC)c1 [Compound 226, 5-((1H-pyrazol-1-yl)methyl)-N-((2,4-dimethoxyphenyl)sulfonyl)-6-methoxypicolinamide]"
11,11,"COc1cccc(OCC(F)(F)F)c1S(=O)(=O)NC(=O)c1ccc(Cn2cccn2)c(OC)n1 [Compound 227, 5-((1H-pyrazol-1-yl)methyl)-6-methoxy-N-((2-methoxy-6-(2,2,2-trifluoroethoxy)phenyl)sulfonyl)picolinamide]"
12,21,"COc1cccc(OC)c1S(=O)(=O)NC(=O)c1ccc(Cn2cccn2)c(OC(F)(F)F)n1 [Compound 228, 5-((1H-pyrazol-1-yl)methyl)-N-((2,6-dimethoxyphenyl)sulfonyl)-6-(trifluoromethoxy)picolinamide]"
13,13,"COc1cccc(OC)c1S(=O)(=O)NC(=O)c1ccc(Cn2cccn2)c(C2CC2)n1 [Compound 229, 5-((1H-pyrazol-1-yl)methyl)-6-cyclopropyl-N-((2,6-dimethoxyphenyl)sulfonyl)picolinamide]"
14,14,"COc1cccc(OC)c1S(=O)(=O)NC(=O)c1ccc(Cn2cccn2)c(C(F)F)n1 [Compound 231, 5-((1H-pyrazol-1-yl)methyl)-6-(difluoromethyl)-N-((2,6-dimethoxyphenyl)sulfonyl)picolinamide]"
